Data set [1] relates to right atrium. The data set can be described thus: Spontaneous (chronotropic) activity of isolated right atria. Conditions: Cavia porcellus. In kind it is cell-based, guinea pigs. As for the experimental part: (§1) The COS-releasing compounds according to the present invention were tested on isolated muscle-preparations of the aorta, arteria pulmonalis, terminal ileum, papillary muscle and the right atrium (derived from guinea pigs) for their vasodilatory effect.
(§2) Guinea pigs of both sexes (340-480 g) were killed with a blow on the neck. After excision of the heart, the aorta and the ileum were dissected. The aorta was cleaned of loosely adhering fat and connective tissue and cut into rings of 2 mm width. The terminal portion of the ileum was removed and the 10 cm nearest to the caecum were discarded. The intestine was placed in a nutrient solution. The intestine was cleaned by flushing with nutrient solution and cut into pieces of 2 to 3 cm length. The arteria pulmonalis was dissected close to the heart, cleaned and cut into rings of 2 mm width. Papillary muscles were dissected from the right ventricle for contractility measurements. Purkinje fibres were carefully removed to prevent spontaneous activity. Only muscles with a diameter of less than 0.87 mm were used in order to have a sufficient oxygen supply. Chronotropic activity was tested on guinea-pig isolated right atria.
(§3) After isolation the preparations (aortic rings, terminal ilea, arteria pulmonalis rings, papillary muscles and right atria) were stored at room temperature in gassed (95% O2-5% CO2) Krebs-Henseleit solution with the following composition (in mmol/l): NaCl 114.9, KCl 4.73, CaCl2 3.2, MgSO4 1.18, NaHCO3, 24.9, KH2PO4 1.18, glucose 10; pH 7.2-7.4.
(§4) Isometric contraction force of electrically stimulated papillary muscles (1 Hz), terminal ilea precontracted by 60 mmol/l KCl, aortic and arteria pulmonalis rings precontracted by 90 mmol/l KCl as well as spontaneous activity of right atria was measured by the method described by Reiter (Reiter, M. Bioassay of inotropic agents on the isolated papillary muscle. Arzneim. Forsch. 1967, 17, 1249-1253).
(§5) The preparations were placed in a continuously oxygenated (95% O2 and 5% CO2) bath of 35 ml nutrient solution to guarantee sufficient oxygen supply and appropriate pH as well as circulation of nutrient solution with and without test compound. The experiments were performed at a temperature of 37±1° C. The smooth and heart muscle preparations were connected with one end to a tissue holder and the other to a force transducer (Transbridge™, 4-Channel Transducer Amplifier, World Precision Instruments, Sarasota, Fla., USA). Papillary muscles were electrically driven with an Anapulse Stimulator Model 301-T and an Isolation Unit Model 305-1 (WPI, Hamden, Conn., USA) at a frequency of 1 Hz and a pulse duration of 3 ms. Amplitude of stimulation pulse was adjusted 10% above threshold level. Resting tension of either 3.92 mN (papillary muscles), 10.37 mN (right atria) or 19.6 mN (aortic and arteria pulmonalis rings) was kept constant throughout the experiments.
(§6) Signals were recorded with a chart recorder (BD 112 Dual Channel, Kipp & Zonen) and evaluated. For statistical analyses the arithmetic means and standard error of the mean (SEM) of n experiments were calculated. Statistical significance of the results was evaluated by the Student's t-test for paired observations. EC50-values were graphically determined from the concentration response curves.
(§7) Stock solutions of the compounds were dissolved in distilled water every day and were further diluted with modified Krebs-Henseleit solution to the required concentrations (1, 3, 10, 30 and 100 μmol/l).

Data set [2] relates to terminal ileum. In words: Isometric contraction force of isolated terminal ilea precontracted by KCl. Format: cell-based, guinea pigs. Particulars: Cavia porcellus; terminal ilea precontracted by 60 mmol/l KCl. As for the experimental part:
as §1, §2, §3, §4, §5, §6, §7

The subject of data set [3] is papillary muscle. The data set can be described thus: Isometric contraction force of electrically stimulated papillary muscles. In kind it is cell-based, guinea pigs. Conditions: Cavia porcellus; electrically stimulated (1 Hz). As for the experimental part: as §1, §2, §3, §4, §5, §6, §7
In data set [4] the test system is aorta. The data set can be described thus: Isometric contraction force of isolated aortic rings precontracted by KCl. Particulars: for EC50: Cavia porcellus, aortic rings precontracted by 90 mmol/l KCl, Krebs-Henseleit solution, 37°C. In kind it is cell-based, guinea pigs. As for the experimental part:
as §1, §2, §3, §4, §5, §6, §7

Data set [5] deals with arteria pulmonalis. In words: Isometric contraction force of isolated arteria pulmonalis rings precontracted by KCl. In kind it is cell-based, guinea pigs. Particulars: Cavia porcellus; arteria pulmonalis rings precontracted by 90 mmol/l KCl. As for the experimental part: as §1, §2, §3, §4, §5, §6, §7
Data set [6] relates to aortic rings. In words: Contraction force of aortic rings in blood plasma. Format: cell-based, guinea pigs. Particulars: 100 μM, guinea pig blood plasma, KCl 90 mM, after 60 minutes. As for the experimental part: Guinea pigs of both sexes (340-480 g) were killed with a blow on the neck. The thorax was opened immediately and heparinized blood was collected. After centrifugation of the blood, the blood plasma was obtained which was used in the further experiments. Further, the aorta of the guinea pigs was excised and prepared as described in 4.3. Thus, the aortic rings were present at room temperature in Krebs-Henseleit solution and put under a resting tension. The contraction force was determined as described under 4.3. A stock solution of CRC80HCl in distilled water was prepared. CRC80HCl was used in a final concentration of 100 μM in the experiments.
In a second experiment, the Krebs-Henseleit solution was exchanged with blood plasma of the guinea pigs gained as described above prior to the addition of CRC80HCl. Thus, the Krebs-Henseleit solution was exchanged by 6 ml blood plasma and KCl was added 15 minutes later to a final concentration of 90 mM. Once a steady state was reached, CRC80HCl was added to a final concentration of 100 μM and the contraction force was recorded over a period of 60 minutes. After the period of 60 minutes, a decrease of the contraction force of 39% was observed.

Data set [7] concerns smooth muscle preparations. In words: Vasodilatory activity on smooth muscle preparations (preparation not specified). In kind it is cell-based, guinea pigs. Particulars: for vasodilatory activity on smooth muscle preparations: setup of 4.3, aqueous solution; for EC50: Cavia porcellus, setup of 4.3, preparation not specified, read-out: EC50 vasodilatory activity (negative controls). As for the experimental part: as §1, §2, §3, §4, §5, §6, §7
Compounds CRC59, CRC59HCl, CRC60 and CRC60HCl as indicated in the table below were used as negative controls in the present experimental setup. Due to the exchange of sulfur against oxygen, said compounds are not able to release COS.

Data set [8] is described as follows: Stability in aqueous solution (concluded from inactivity in aqueous setup). In kind it is physicochemical. Particulars: conditions of 4.3. An excerpt:
Some of the COS releasing compounds according to formula (I) may, however, release COS in a spontaneous hydrolysis reaction due to the presence of H2O in aqueous solutions, suspensions, and the like. Said compounds may also be referred to as being “instable compounds” in aqueous solutions. The determination of the stability of COS releasing compounds according to the present invention may easily be determined, e.g. by dissolving a compound to be tested in an aqueous solution and determining the amount of COS released over time.

In data set [9] the test system is isolated mouse heart. In words: Isolated mouse heart, Langendorff perfusion. In kind it is cell-based, female OF-1 mice. As for the experimental part: Hearts from female OF-1 mice were excised, cannulated and perfused retrogradely, according to the Langendorff technique, with modified oxygenated Krebs-Henseleit-buffer at constant pressure. After 15 min of baseline perfusion, CRC1HCl (10 μM) was administered into the coronary perfusion system for 10 min. Coronary flow (CF), heart rate (HR), aortic pressure (AoP), concentrations of K^+, Na^+, Ca^2+ and the pH-value were monitored throughout the whole experiment (CRC1HCl-group, n=8; control group, n=8).
In a second set of experiments in the setup as described above, nitro-L-arginine (L-NA) (n=6) and PNU-37883A (n=4) were evaluated as potential inhibitors of CRC1HCl (10 μM) activity. The compounds were added to final concentrations of 100 μM (L-NA) and 10 μM (PNU-37883A).
Also, the myocardial consumption of lactate and glucose was monitored in both the control-group and the CRC1HCl-group.

[10] abbreviates: 10 μM, vs control, data not shown.

Some results are limits rather than exact numbers.

By EC50 is commonly meant the concentration needed to bring the measured effect to its halfway point. The term melting point denotes the temperature of the solid-liquid transition. Compound `COc1cc(CSC(=S)n2ccnc2)cc(OC)c1OC` [CRC33] showed a melting point of 110 to 113 °C. In data set [1], the EC50 was 26.5 µM. In data set [2], this compound had an EC50 of 15.3 µM. In addition, in data set [3], the EC50 is above 100 µM. Also, it took 2.98 µM to reach a half-maximal effect in data set [4] (EC50). The EC50 in data set [5] came to 7.9 µM.
In turn, `COc1ccc2ncn(C(=S)SC)c2c1` [CRC6] returned a melting point of 64 to 87 °C.
For the compound `CCOC(=S)OCCCN(C)C.Cl` [CRC80HCl], the “vasodilatory activity on the aortic ring in Krebs-Henseleit solution” value in [4] (100 μM, period of 45 minutes) is “did not show a vasodilatory activity”. For the same compound, the “decrease of the contraction force” value in data set [6] amounted to 39%.
Take `S=C(N1CCN(C(=S)n2ccnc2)CC1)n1ccnc1` [CRC66]: the melting point is 225 to 226 °C.
`CN(C)CCOC(=S)OCCN(C)C.Cl.Cl` [CRC72HCl]: the “vasodilatory activity on smooth muscle preparations” value in [7] was “inactive”. In addition, the “stability in aqueous solutions” value in data set [8] is “stable in aqueous solutions”.
In the case of `S` [H2S, hydrogen sulfide, reference compound], the 50% effective concentration (EC50) in data set [4] came out at 107 µM.
For the compound `CC(C)OC(=O)n1ccnc1.Cl` [CRC60HCl], in [7], the EC50 was above 100 µM and the “vasodilatory activity on smooth muscle preparations” value is listed as “did not show vasodilatory activity”.
Consider `Cl.O=C(OC1CCCCC1)n1ccnc1` [CRC59HCl], for which, in data set [7], the EC50 was above 100 µM and the “vasodilatory activity on smooth muscle preparations” value is “did not show vasodilatory activity”.
Regarding `CSC(=S)n1ccnc1C` [CRC5HCl], the EC50 is above 100 µM in data set [1]; 9.5 µM in [2]; above 100 µM in data set [3]; 6.3 µM in data set [4]; 11.2 µM in data set [5].
In the case of `CSC(=S)n1c(C)nc2ccccc21` [CRC4HCl], the concentration giving a half-maximal response (EC50) in [1] was 56 µM; in data set [2], 25.6 µM; in [3], above 100 µM; in data set [4] it was 22.8 µM; in [5] it was 25.1 µM.
In the case of `CSC(=S)n1ccnc1.Cl` [CRC1HCl], in data set [1], the EC50 is above 100 µM. In [2], the EC50 amounted to 5.7 µM. The same compound displayed a concentration for a half-maximal effect (EC50) in [3] of 78 µM. In [9] (10 μM for 10 min, vs control), the “aortic pressure (AoP)” value is “not significantly affected or altered”, the “concentration of Ca2+ in coronary effusate” value is on record as “not significantly affected or altered”, the “concentration of K+ in coronary effusate” value was “not significantly affected or altered” and the “concentration of Na+ in coronary effusate” value is “not significantly affected or altered”. Moreover, in data set [9] (10 μM for 10 min, vs control), the “heart rate (HR)” value is on record as “not significantly affected or altered” and the “pH-value of coronary effusate” value is “not significantly affected or altered”. The “coronary flow (CF)” value in data set [9] (10 μM for 10 min, during and 30 minutes after administration, vs control, p<0.05) is listed as “significantly increased”. In data set [9] (setting [10]), the “myocardial consumption of glucose” value was “not significantly affected or altered” and the “myocardial consumption of lactate” value is listed as “not significantly affected or altered”. The “effect of inhibition of ATP-sensitive potassium-channels on the vasodilatory effect” value in data set [9] (CRC1HCl 10 μM with PNU-37883A 10 μM, data not shown) is “had no effect”. Also, the “effect of inhibition of nitric oxide synthase on the vasodilatory effect” value in data set [9] (CRC1HCl 10 μM with nitro-L-arginine 100 μM, data not shown) was “had no effect”. This compound had an EC50 in [4] of 7.8 µM. Also, the EC50 in data set [5] is 6.9 µM.
Regarding `Cc1nccn1C(=S)SCc1ccccc1` [CRC9HCl], the EC50 in data set [1] was 15.3 µM; in [2], 17.2 µM; in data set [3] it was above 100 µM; in data set [4], 3.36 µM; in data set [5], 10.5 µM.
For `CCOC(=O)CCSC(=S)n1ccnc1` [CRC11HCl], in that order: above 100 µM, 32.1 µM, above 100 µM, 16 µM and 19.8 µM.
For the compound `O=C(OC1CCCCC1)n1ccnc1` [CRC59], the “vasodilatory activity on smooth muscle preparations” value in [7] is listed as “did not show vasodilatory activity”.
For the compound `S=C(SCc1ccccc1)n1ccnc1` [CRC8HCl], the EC50 in data set [1] was above 100 µM; in data set [2], 15.3 µM; in data set [3], 26 µM; in data set [4], 20.1 µM; in data set [5], 63 µM.
For `CC(=O)OCCSC(=S)n1ccnc1` [CRC13HCl], in that order: above 100 µM, 100 µM, 77 µM, 5.75 µM and 24 µM.
Turning to `COc1ccc(CSC(=S)n2ccnc2)cc1` [CRC10HCl], the EC50 in data set [1] is above 100 µM; in [2], 100 µM; in data set [3], above 100 µM; in [4], 12.8 µM; in data set [5] it was 24 µM.
For the compound `CC(C)OC(=O)n1ccnc1` [CRC60], in [7], the “vasodilatory activity on smooth muscle preparations” value is listed as “did not show vasodilatory activity”.

These data come from patent US20130005739A1, “PHARMACEUTICAL PREPARATIONS COMPRISING A COS RELEASING COMPOUND” (LUDWIG BOLTZMANN CLUSTER FUER KARDIOVASKULAERE FORSCHUNG, priority 2009, published 2013).
